Results on four compounds are retold here after patent publication EP0277611A2, “Alkyl-substituted N-benzopyranyl lactames, process for their preparation, their use and pharmaceutical preparations on the basis of these compounds” (HOECHST AKTIENGESELLSCHAFT, priority 1987, dated 1988).

One experiment has as its system Meerschweinchen-Ureteren. The experiment in a line: Influence on KCl-induced rhythmic contractions of isolated guinea pig ureters in vitro. Conditions: 10⁻⁷ mol/l test substance, KCl 4 x 10⁻² mol/l, mean ± SEM; for inhibition at 0.1 µM: Cavia porcellus. The experiment is classed as cell-based. An excerpt: Beeinflussung der KCl-induzierten rhythmischen Kontraktionen an Meerschweinchen-Ureteren in vitro
Männliche Meerschweinchen wurden durch Nackenschlag und Entbluten aus den Carotiden getötet. Die beiden Ureteren wurden sofort entnommen, wobei der Bereich nahe dem Nierenkelch wegen der dort vorhandenen Schrittmacher-Aktivität gemieden wurde. 2 cm lange Stücke wurden zunächst in einer Petrischale, die Tyrode-Lösung enthielt, von Bindegewebe befreit und dann jeweils mit einer Vorspannung von 4,9 mN (=0,5 p) in ein 25 ml-Organbad (Fa. Rhema Labortechnik, Hofheim) gehängt. Das Organbad enthielt eine auf 37° gehaltene und mit Carbogen (95 % O₂, 5 % CO₂) durchperlte Tyrodelösung mit folgender Zusammensetzung (mmol/l): NaCl 137, KCl 2,68, MgSO₄ 1,05, CaCl₂ 1,8, NaH₂PO₄ 0,41, NaHCO₃ 11,9, Glucose 5,55. Die Kontraktionen wurden isometrisch gemessen unter Verwendung von Gould/Statham UC2 Gebern. Nach einer Äquiilibrierungszeit von mindestens 15 Minuten wurde KCl in das Organbad zugegeben, wobei eine Konzentration von 4 x 10⁻² mol/l erreicht wurde. Der Agonist wurde 2 Minuten im Bad belassen, wobei phasische Kontraktionen auftraten, ohne einen nennenswerten Anstieg der Grundspannung zu bewirken.
Danach wurde 1 Minute ausgespült, woraufhin die rhythmischen Kontraktionen sofort aufhörten. Nach einem zweiten Durchgang von Agonistgabe und Spülvorgang wurde die Prüfsubstanz (Benzopyran-Derivat) in das Organbad zugegeben (in Form einer Lösung in 0,1 ml Ethanol, die Endkonzentrationen betrugen in allen Fällen 10⁻⁷ mol/l) und eine Einwirkungszeit von einer Minute abgewartet, bevor KCl zugesetzt wurde. An den folgenden Spülvorgang schlossen sich zwei abschließende Agonistgabe/Spülgänge an. Von den jeweils zweiminütigen Perioden unter KCl-Einwirkung wurden folgende Parameter bestimmt: 1. mittlere Kontraktionskraft, 2. Frequenz der Kontraktionen und 3. Produkt aus mittlerer Kontraktionskraft und Frequenz. Ausschlußkriterien waren mittlere Kontraktionskräfte unter 4 mN oder Frequenzen unter 2/min bei mehr als einer der vier Perioden, bei denen nur der Agonist KCl im Bad vorhanden war. Ausgewertet wurde die prozentuale Hemmung unter Prüfsubstanz im Vergleich zum gemittelten Wert aus den beiden Vorläufen.
Neben dem arithmetischen Mittelwert (x) wurde der Standardfehler des Mittelwerts (SEM) errechnet.

A further experiment has as its system arteriellen Blutdruck. The experiment in a line: Effect on arterial blood pressure in anaesthetised normotensive rats (ED25 from minima of blood pressure curves). The experiment is classed as in vivo, männlichen Sprague-Dawley Ratten. The following applies: Rattus norvegicus, anaesthetised (Nembutal 70 mg/kg i.p.) normotensive rats, from minimum of blood pressure curve, read-out: ED₂₅. The procedure:
Der Einfluß der Verbindungen auf den arteriellen Blutdruck wurde an narkotisierten normotensiven männlichen Sprague-Dawley Ratten untersucht. Als Betäubungsmittel wurde Nembutal® in einer Dosis von 70 mg/kg i.p. verwendet. Die Blutdruckmessung erfolgte mittels Katheter in der Arteria carotis mit einem Druckwandler (Statham P 23 Db). Für die i.v. Applikation wurden die Substanzen in Dimethylsulfoxid gelöst und mit Wasser verdünnt. Die Konzentration der Stammlösung war 1mg/ml, wobei die Lösung 15 % Dimethylsulfoxid enthielt. Anteile dieser Stammlösung wurden für die Injektion jeweils frisch mit Wasser verdünnt.
Es kamen Konzentrationen von 50 (100), 30 (30) und 10 (10) µg/ml für die i.v. Applikation, 100 (100), 50 (60) und 30 (30) µg/ml für die i.d. Applikation zur Anwendung. Die angegebenen Zahlen beziehen sich dabei auf das Experiment a), die in Klammern angegebenen Zahlen auf Experiment b).
Die Blutdruckmessung wurde nach 0; 0,2; 0,4; 1; 2; 3; 10; 15 und 30 min. nach der i.v. Applikation sowie nach 0; 1; 3; 5; 10; 15; 20; 30; 40; 50 und 60 min. nach der i.d. Applikation vorgenommen. Die ED₂₅ Werte wurden aus dem Minima der jeweiligen Blutdruckkurven bestimmt. • a) (±)-(3R*, 4S*, 5ʹS*)-6-Cyano-3,4-dihydro-2,2-dimethyl-4-(2ʹ-oxo-5ʹ-methyl-1ʹ-pyrrolidinyl)-2H-benzo[b]pyran-3-ol (Verbindung aus Beispiel 1): ED₂₅= 19 µg/kg (i.v.) ED₂₅=42 µg/kg (i.d.) • b) (±)-6-Cyano-3,4-dihydro-2,2-dimethyl-trans-4-(2-oxo-1-pyrrolidinyl-2H-benzo[b]pyran-3-ol (Beispiel aus J. Med. Chem. 1986, 29, 2194-2201) ED₂₅= 42 µg/kg (i.v.) ED₂₅= 82 µg/kg (i.d.)

[1] abbreviates: percent inhibition of product of mean contraction force and frequency, read-out: k·v [%].
The mark [2] stands for this setting: percent inhibition vs mean of the two pre-runs, read-out: Frequenz v [%].
The mark [3] stands for this setting: percent inhibition vs mean of the two pre-runs, read-out: mittlere Kontraktionskraft k [%].
[4] abbreviates: percent inhibition vs mean of the two pre-runs, 0.1 µM.

Like-named read-outs stand apart in the source and are kept apart here.

`C[C@@H]1CCC(=O)N1[C@H]1c2cc(C#N)ccc2OC(C)(C)[C@@H]1O` [(-)-(3R, 4S, 5ʹR)-6-Cyano-3,4-dihydro-2,2-dimethyl-4-(2ʹ-oxo-5ʹ-methyl-1ʹ-pyrrolidinyl)-2H-benzo[b]pyran-3-ol]: the inhibition at 0.1 µM in the experiment with Meerschweinchen-Ureteren (setting [1]) stood at 96 ± 2%; in the experiment on Meerschweinchen-Ureteren (setting [2]), 89 ± 4%; in the experiment with Meerschweinchen-Ureteren (setting [3]) it was 75 ± 8%.

With `CC1(C)Oc2ccc(C#N)cc2C(N2CCCC2=O)C1O` (racemic) [(±)-6-Cyano-3,4-dihydro-2,2-dimethyl-trans-4-(2-oxo-1-pyrrolidinyl-2H-benzo[b]pyran-3-ol, reference compound], the inhibition at 0.1 µM in the experiment with Meerschweinchen-Ureteren (setting [1]) was determined as 61 ± 7%; with Meerschweinchen-Ureteren (setting [2]) it was 58 ± 5%; with Meerschweinchen-Ureteren (setting [3]) it was 8 ± 8%. Also, the ED25 in the experiment on arteriellen Blutdruck (iv) was determined as 0.042 mg/kg; in the experiment with arteriellen Blutdruck (i.d.), 0.082 mg/kg.

As for `C[C@@H]1CCC(=O)N1[C@H]1c2cc(C#N)ccc2OC(C)(C)[C@@H]1O` (racemic) [±)-(3R^*,4S^*,5'R^*)-6-Cyano-3,4-dihydro-2,2-dimethyl-4-(2'-] [(3R*, 4S*, 5ʹR*)-6-Cyano-3,4-dihydro-2,2-dimethyl-4-[2ʹ-oxo-5ʹ-methyl-1ʹ-pyrrolidinyl)-2H-benzo[b]pyran-3-ol], the “k·v [%]” value in the experiment with Meerschweinchen-Ureteren (percent inhibition of product of mean contraction force and frequency, 0.1 µM) turned out to be 96 ± 1%. Further, in the experiment with Meerschweinchen-Ureteren (setting [4]), the “Frequenz v [%]” value was 86 ± 4% and the “mittlere Kontraktionskraft k [%]” value was determined as 69 ± 11%.

On to `C[C@H]1CCC(=O)N1[C@H]1c2cc(C#N)ccc2OC(C)(C)[C@@H]1O` (racemic) [(3R*, 4S*, 5ʹS*)-6-Cyano-3,4-dihydro-2,2-dimethyl-4-[2ʹ-oxo-5ʹ-methyl-1ʹ-pyrrolidinyl]-2H-benzo[b]pyran-3-ol], for which the values for the ED25 in the experiment on arteriellen Blutdruck (iv) and in the experiment with arteriellen Blutdruck (i.d.) were 0.019 mg/kg and 0.042 mg/kg, respectively.
